Results reported in patent EP4678644A1, “SUBSTITUTED DIHYDROTHIENOPYRIMIDINE COMPOUND, PREPARATION METHOD THEREFOR, AND USE THEREOF” (Shanghai Yidi Biotechnology Co., Ltd., priority 2023, dated 2024).

How the values were obtained:
[1] = molecular target: PDE4D2 (Homo sapiens, UniProt Q08499); test: PDE4D2 enzyme experiment (AMP-glo, cAMP substrate); assay type: biochemical; conditions: read-out: PDE4D2 IC50 Binding
Description: Inhibition rate % ^= (1 - (RLUpositive control - RLUcompound)/(RLUpositive control - RLUnegative control)) * 100.

[2] = molecular target: T1, PDE4B2 (Homo sapiens, UniProt Q07343); test: PDE4B2 cell experiment (cAMP, Eu-cAMP tracer / Ulight-anti-cAMP); assay type: cell-based; conditions: Flpin-293-PDE4B2 cells; for Cell Inhibition% @1 nM / inhibition at 0.001 µM: 1 nM; for Cell Inhibition% @10 nM / inhibition at 0.01 µM: 10 nM; for Cell Inhibition% @100 nM / inhibition at 0.1 µM: 100 nM; for IC50: Foskolin
T1 construct: expressed in transfected cells; host or cells: Flp-In-293 (Flpin-293-PDE4B2 [sic])
Description: All compounds were dissolved in DMSO into 10 mM or 20 mM stock solutions. The compound to be tested was diluted with DMSO with a 3-fold gradient. […] 40 nL/well of the compound or a DMSO control was transferred to a 384-well plate by using Echo 550 instrument. […] The plate was incubated at 37°C for 30 minutes. Eu-cAMP tracer and Ulight-anti-cAMP were frozen and thawed and diluted in a lysis buffer. 10 of µl Eu-cAMP tracer was added to an experimental well, and 10 µl of Ulight-anti-cAMP was added to the experimental well. The reaction plate was centrifuged at 200 g at room temperature for 30 s and then left to stand at 25°C for 1 h, and data was then collected by Envision. Inhibition % = 100 - (Signal compound - SignalAve positive control)/(SignalAve negative control - SignalAve positive control) × 100. Graphpad 8.0 software was then used to obtain an IC50 value by calculation using Y = Bottom + (Top - Bottom)/(1 + 10^((LogIC50 - X) * HillSlope)).

[3] = molecular target: T1, PDE4B2; test: PDE4B2 enzyme experiment (AMP-glo, cAMP substrate); assay type: biochemical
Description: All compounds were dissolved in DMSO into 10 mM or 20 mM stock solutions. The compound to be tested was diluted with DMSO in a 3-fold gradient. 20 nL/well of the compound or a DMSO control was transferred to a 384-well plate by using Echo 550 instrument. The plate was sealed with a membrane and centrifuged for 1 minute. A 2x enzyme solution was prepared with an assay buffer, and 2 uL/well of the 2x enzyme solution was added, followed by equilibration at room temperature for 10 minutes. A 2x Cyclic-3',5'-AMP substrate solution was prepared with an assay buffer, and 2 uL/well of the 2x substrate solution was added, followed by incubation at room temperature for 60 minutes. 4 uL of AMP-glo reagent was added, followed by incubation at room temperature for 60 minutes. 8 ul of an AMP detection solution was added, followed by incubation at room temperature for 60 minutes. An RLU value was read on Envision 2105 plate reader. The RLU value represents the concentration of the product AMP. Inhibition rate % ^= (1 - (RLUpositive control - RLUcompound)/(RLUpositive control - RLUnegative control)) * 100. The IC50 value was then caulculated by Graphpad 8.0 software using Y = Bottom + (Top - Bottom)/(1 + 10^((LogIC50 - X) * HillSlope)).

PDE4D2, sequence (Q08499 303-809 limits assumed): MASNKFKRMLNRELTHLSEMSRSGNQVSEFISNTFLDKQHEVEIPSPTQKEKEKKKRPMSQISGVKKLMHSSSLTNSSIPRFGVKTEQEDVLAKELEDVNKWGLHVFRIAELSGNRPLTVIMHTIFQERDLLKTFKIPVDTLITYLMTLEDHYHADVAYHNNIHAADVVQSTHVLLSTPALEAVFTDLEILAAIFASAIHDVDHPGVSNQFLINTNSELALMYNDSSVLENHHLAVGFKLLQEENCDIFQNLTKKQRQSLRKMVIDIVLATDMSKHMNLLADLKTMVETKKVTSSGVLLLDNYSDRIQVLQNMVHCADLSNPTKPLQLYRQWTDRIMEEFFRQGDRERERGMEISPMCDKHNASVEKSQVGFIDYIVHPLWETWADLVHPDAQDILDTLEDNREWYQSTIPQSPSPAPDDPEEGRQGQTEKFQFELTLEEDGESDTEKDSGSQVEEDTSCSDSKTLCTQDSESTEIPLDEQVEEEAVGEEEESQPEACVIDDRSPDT
T1 sequence (Q07343 1-564 isoform Q07343-2): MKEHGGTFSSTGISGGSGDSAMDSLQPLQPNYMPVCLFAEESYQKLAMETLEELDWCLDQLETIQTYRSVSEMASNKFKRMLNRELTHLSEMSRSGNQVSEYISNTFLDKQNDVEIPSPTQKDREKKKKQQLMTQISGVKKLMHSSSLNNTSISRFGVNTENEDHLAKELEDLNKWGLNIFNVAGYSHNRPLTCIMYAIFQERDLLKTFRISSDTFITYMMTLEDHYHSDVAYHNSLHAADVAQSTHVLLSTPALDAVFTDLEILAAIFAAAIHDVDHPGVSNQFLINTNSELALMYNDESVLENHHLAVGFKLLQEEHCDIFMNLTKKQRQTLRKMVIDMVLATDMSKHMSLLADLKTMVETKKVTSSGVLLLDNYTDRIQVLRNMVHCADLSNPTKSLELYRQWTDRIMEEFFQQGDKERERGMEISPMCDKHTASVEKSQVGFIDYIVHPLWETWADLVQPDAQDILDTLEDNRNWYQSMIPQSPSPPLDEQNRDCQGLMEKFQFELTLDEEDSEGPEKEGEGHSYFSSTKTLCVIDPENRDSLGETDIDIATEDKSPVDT

| Compound | IC50 [1] [nM] | Cell Inhibition% @1 nM [2] [%] | Cell Inhibition% @10 nM [2] [%] | Cell Inhibition% @100 nM [2] [%] | IC50 [3] [nM] | further results |
| --- | --- | --- | --- | --- | --- | --- |
| [O-][S+]1CCc2nc(N3CC[C@H]4c5ccc(Cl)cc5OC[C@H]4C3)nc(NC3(CO)CCC3)c21 (some centres unmarked) [Compound 116] | 12.4 | 2.17 | 16.91 | 73.36 | 3.01 | – |
| O=c1[nH]c2cc3c(cc2o1)CN(c1nc2c(c(NC4(CO)CCC4)n1)[S@+]([O-])CC2)CC3 [Compound 51, (R)-6-(4-((1-(hydroxymethyl)cyclobutyl)amino)-5-oxido-6,7-dihydrothieno[3,2-d]pyrimidin-2-yl)-5,6,7,8-tetrahydrooxazolo[4,5-g]isoquinolin-2(1H)-one] | 1.18 | – | – | – | 0.596 | inhibition at 0.001 µM [2]: 17.1%; inhibition at 0.01 µM [2]: 38.4%; inhibition at 0.1 µM [2]: 70.1% |
| [O-][S+]1CCc2nc(N3CCc4cc(Cl)cc(Cl)c4C3)nc(NC3(CO)CCC3)c21 (centres unmarked) [Compound 25] | 2.19 | – | – | – | 0.92 | IC50 [2]: 23.7 nM |
| Cn1c(=O)oc2cc3c(cc21)CCN(c1nc2c(c(NC4(CO)CCC4)n1)[S@+]([O-])CC2)C3 [Compound 68, (R)-6-(4-((1-(hydroxymethyl)cyclobutyl)amino)-5-oxido-6,7-dihydrothieno[3,2-d]pyrimidin-2-yl)-1-methyl-5,6,7,8-tetrahydrooxazolo[4,5-g]isoquinolin-2(1H)-one] | 0.77 | – | – | – | 0.476 | inhibition at 0.001 µM [2]: 8.99%; inhibition at 0.01 µM [2]: 56.3%; inhibition at 0.1 µM [2]: 96.1% |
| COc1nc2cc(Cl)ccc2c2c1CN(c1nc3c(c(NC4(CO)CCC4)n1)[S+]([O-])CC3)CC2 (centres unmarked) [Compound 101] | 1.96 | – | – | – | 0.655 | IC50 [2]: 13.2 nM |
| O=C(O)Cc1ccc(Nc2nc(N3CCc4cc(Cl)ccc4C3)nc3c2[S@@+]([O-])CC3)cc1 [Compound 128] | 18.1 | -0.97 | 6.68 | 25.39 | 5.43 | – |
| [O-][S+]1CCc2nc(N3CCc4cc(Cl)ncc4C3)nc(NC3(CO)CCC3)c21 (centres unmarked) [Compound 78] | 4.02 | 2.20 | 32.09 | 86.33 | 1.82 | – |
| [O-][S+]1CCc2nc(N3CC[C@@H]4c5ccccc5OC[C@H]4C3)nc(NC3(CO)CCC3)c21 (some centres unmarked) [Compound 83] | 1.07 | 5.79 | 47.82 | 97.34 | 0.621 | – |
| C[C@@H]1c2ccc(Cl)cc2CCN1c1nc2c(c(NC3(CO)CCC3)n1)[S@+]([O-])CC2 [Compound 29] | 1.79 | – | – | – | 0.54 | – |
| [O-][S+]1CCc2nc(N3CC[C@@H]4c5cc(Cl)ccc5OC[C@H]4C3)nc(NC3(CO)CCC3)c21 (some centres unmarked) [Compound 108] | 4.17 | -0.82 | 37.35 | 95.13 | 1.41 | – |
| O=C(O)Cc1ccc(Nc2nc(N3CCc4cc(Cl)ccc4C3)nc3c2[S@+]([O-])CC3)cc1 [Compound 129] | 0.705 | 6.93 | 39.59 | 72.19 | 0.202 | – |
| [O-][S+]1CCc2nc(N3CCc4cc(-n5cccn5)ccc4C3)nc(NC3(CO)CCC3)c21 (centres unmarked) [Compound 91] | 0.233 | 19.25 | 86.01 | 99.96 | 0.142 | – |
| Cn1ccc(-c2ccc3c(c2)CCN(c2nc4c(c(NC5(CO)CCC5)n2)[S+]([O-])CC4)C3)n1 (centres unmarked) [Compound 77] | 0.049 | 61.02 | 99.37 | 100.73 | 0.05 | – |
| [O-][S@+]1CCc2nc(N3CC[C@@H]4c5ccc(Cl)cc5OC[C@H]4C3)nc(NC3(CO)CCC3)c21 [Compound 14, (R)-2-((4aR,10bS)-8-chloro-1,4a,5,10b-tetrahydro-2H-chromeno[3,4-c]pyridin-3(4H)-yl)-4-((1-(hydroxymethyl)cyclobutyl)amino)-6,7-dihydrothieno[3,2-d]pyrimidine 5-oxide] | 1.08 | – | – | – | 0.21 | IC50 [2]: 16.5 nM |
| [O-][S@+]1CCc2nc(N3CCc4sc(I)cc4C3)nc(NC3(CO)CCC3)c21 [Compound 56, (R)-4-((1-(hydroxymethyl)cyclobutyl)amino)-2-(2-iodo-6,7-dihydrothieno[3,2-c]pyridin-5(4H)-yl)-6,7-dihydrothieno[2,2-d]pyrimidine 5-oxide] | 1.95 | – | – | – | 0.998 | inhibition at 0.01 µM [2]: 40.6%; inhibition at 0.1 µM [2]: 90.2% |
| COc1nc2c(c3ccc(Cl)cc13)CCN(c1nc3c(c(NC4(CO)CCC4)n1)[S+]([O-])CC3)C2 (centres unmarked) [Compound 99] | 3.14 | 4.18 | 43.68 | 96.53 | 1.24 | – |
| COc1ccc2c(c1)CCN(c1nc3c(c(NC4(CO)CCC4)n1)[S+]([O-])CC3)C2 (centres unmarked) [Compound 22] | 1.46 | – | – | – | 0.97 | IC50 [2]: 14.8 nM |
| [O-][S@+]1CCc2nc(N3CCc4cc(-c5nccs5)ccc4C3)nc(NC3(CO)CCC3)c21 [Compound 65, (R)-4-((1-(hydroxymethyl)cyclobutyl)amino)-2-(6-(thiazol-2-yl)-3,4-dihydroisoquinolin-2(1H)-yl)-6,7-dihydrothieno[3,2-d]pyrimidine 5-oxide] | 0.0931 | – | – | – | – | – |
| [O-][S@+]1CCc2nc(N3CCc4c(sc5ccc(F)cc45)C3)nc(NC3(CO)CCC3)c21 [Compound 69, (R)-2-(6-fluoro-3,4-dihydrobenzo[4,5]thieno[2,3-c]pyridin-2(1H)-yl)-4-((1-(hydroxymethyl)cyclobutyl)amino)-6,7-dihydrothieno[3,2-d]pyrimidine 5-oxide] | 0.276 | – | – | – | – | – |
| COc1cc2c(cc1[N+](=O)[O-])CCN(c1nc3c(c(NC4(CO)CCC4)n1)[S@+]([O-])CC3)C2 [Compound 50, (R)-4-((1-(hydroxymethyl)cyclobutyl)amino)-2-(7-methoxy-6-nitro-3,4-dihydroisoquinolin-2(1H)-yl)-6,7-dihydrothieno[3,2-d]pyrimidine 5-oxide] | 0.695 | – | – | – | – | – |
| [O-][S@+]1CCc2nc(N3CCc4nc(N5CCC5)sc4C3)nc(NC3(CO)CCC3)c21 [Compound 64, (R)-2-(2-(azetidin-1-yl)-6,7-dihydrothiazolo[5,4-c]pyridin-5(4H)-yl)-4-((1-(hydroxymethyl)cyclobutyl)amino)-6,7dihydrothieno[3,2-d]pyrimidine 5-oxide] | 3.46 | – | – | – | – | – |
| [O-][S@+]1CCc2nc(N3CCc4nc(N5CCCC5)ccc4C3)nc(NC3(CO)CCC3)c21 [Compound 135, (R)-4-((1-(hydroxymethyl)cyclobutyl)amino)-2-(2-(pyrrolidin-1-yl)-7,8-dihydro-1,6-naphthyridin-6(5H)-yl)-6,7-dihydrothieno[3,2-d]pyrimidine 5-oxide] | 3.38 | – | – | – | – | – |
| [O-][S@+]1CCc2nc(N3CCc4cc5ncoc5cc4C3)nc(NC3(CO)CCC3)c21 [Compound 49, (R)-2-(7,8-dihydrooxazolo[4,5-g]isoquinolin-6(5H)-yl)-4-((1-(hydroxymethyl)cyclobutyl)amino)-6,7-dihydrothieno[3,2-d]pyrimidine 5-oxide] | 4.81 | – | – | – | – | – |
| [O-][S@+]1CCc2nc(N3CCc4cc(N5CCCC5)c(F)cc4C3)nc(NC3(CO)CCC3)c21 [Compound 181, (R)-2-(7-fluoro-6-(pyrrolidin-1-yl)-3,4-dihydroisoquinolin-2(1H)-yl)-4-((1-(hydroxymethyl)cyclobutyl)amino)-6,7-dihydrothieno[3,2-d]pyrimidine 5-oxide] | 0.876 | – | – | – | – | – |
| Cn1ncc2c3c(cnc21)CN(c1nc2c(c(NC4(CO)CCC4)n1)[S@+]([O-])CC2)CC3 [Compound 104, (R)-4-((1-(hydroxymethyl)cyclobutyl)amino)-2-(3-methyl-3,6,8,9-tetrahydro-7H-pyrazolo[3,4-c][2,7]naphthyridin-7-yl)-6,7-dihydrothieno[3,2-d]pyrimidine 5-oxide] | 2.94 | – | – | – | – | – |
| CNc1nc2cc(Cl)ccc2c2c1CN(c1nc3c(c(NC4(CO)CCC4)n1)[S@+]([O-])CC3)CC2 [Compound 74, (R)-2-(8-chloro-5-(methylamino)-1,4-dihydrobenzo[c][2,7]naphthyridin-3(2H)-yl)-4-((1-(hydroxymethyl)cyclobutyl)amino)-6,7-dihydrothieno[3,2-d]pyrimidine 5-oxide] | 1.09 | – | – | – | – | – |
| O=C1OCCN1c1ccc2c(c1)CCN(c1nc3c(c(NC4(CO)CCC4)n1)[S@+]([O-])CC3)C2 [Compound 80, (R)-3-(2-(4-((1-(hydroxymethyl)cyclobutyl)amino)-5-oxido-6,7-dihydrothieno[3,2-d]pyrimidin-2-yl)-1,2,3,4-tetrahydroisoquinolin-6-yl)oxazolidin-2-one] | 0.56 | – | – | – | – | – |
| [O-][S@+]1CCc2nc(N3CCc4c(ccc(N5CCCC5)c4F)C3)nc(NC3(CO)CCC3)c21 [Compound 180, (R)-2-(5-fluoro-6-(pyrrolidin-1-yl)-3,4-dihydroisoquinolin-2(1H)-yl)-4-((1-(hydroxymethyl)cyclobutyl)amino)-6,7-dihydrothieno[3,2-d]pyrimidine 5-oxide] | 6.38 | – | – | – | – | – |
| [O-][S@+]1CCc2nc(N3CCc4c(nn5cc(Cl)cnc45)C3)nc(NC3(CO)CCC3)c21 [Compound 1, (R)-2-(3-chloro-9,10-dihydropyrido[3',4':3,4]pyrazolo[1,5-a]pyrimidin-8(7H)-yl)-4-((1-(hydroxymethyl)cyclobutyl)amino)-6,7-dihydrothieno[3,2-d]pyrimidine 5-oxide] | 7.72 | – | – | – | – | – |
| [O-][S@+]1CCc2nc(N3CCc4c(cnc5cc(Cl)ccc45)C3)nc(NC3(CO)CCC3)c21 [Compound 72, (R)-2-(8-chloro-1,4-dihydrobenzo[c][2,7]naphthyridin-3(2H)-yl)-4-((1-(hydroxymethyl)cyclobutyl)amino)-6,7-dihydrothieno[3,2-d]pyrimidine 5-oxide] | 0.587 | – | – | – | – | – |
